Values of other authors as cited in patent US8912192B2, “Extended release preparation” (Taisho Pharmaceutical Co., Ltd, priority 2010, dated 2014).
Where a name gives a salt, the structure may show the parent alone. Read-outs that look alike come from different tables or passages of the source.

How the values were obtained:
[1] = test system: phosphodiesterase III enzymes; conditions: compound A or a pharmaceutically acceptable salt thereof
[2] = preparation containing a pharmaceutically acceptable salt of compound A, oral, dogs, fasting state
[3] = pharmaceutically acceptable salt of compound A

Compound | half-life period (in vivo) [h] | inhibitory effect against phosphodiesterase III enzymes [1] | bioavailability [2] | solubility in water ([3]; around neutral pH range similar to enteric environment) | solubility in water ([3]; pH range of about 4.0 or higher) | half-life period in blood plasma (blood plasma)
CC(N)C(O)c1ccccc1 (stereo not drawn) [phenylpropanolamine hydrochloride, reference compound] | 4 | – | – | – | – | –
O=c1[nH]nc(OCCCc2ccc(Cl)cc2)c(NCc2cccnc2)c1Br [compound A, 4-bromo-6-[3-(4-chlorophenyl)propoxy]-5-(3-pyridylmethylamino)-3(2H)-pyridazinone] | – | has an inhibitory effect against phosphodiesterase III enzymes | about 10% | quite poorly soluble | decreases its solubility in water | about 1.5 hours
